This is an account of results in patent US9718819B2 (Merck Sharp & Dohme Corp., priority 2012, dated 2017).

Usually IC50 stands for the midpoint of a concentration-inhibition curve.

The target of the assay is HIV-1 RT wild-type enzyme (Human immunodeficiency virus type 1 group M subtype B (isolate HXB2) (HIV-1), UniProt P04585). Nature of the assay: HIV-1 reverse transcriptase inhibitory activity (RT polymerase assay). Type of assay: biochemical. To be noted: HIV-1 RT wild-type enzyme 83 pM; RNA-dependent DNA polymerase activity; read-out: IC50. A digest of the protocol: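 Biotinylated DNA primer annealed to HCV-derived RNA template (16.6 nM final hybrid), with 2 μM dATP/dGTP/dCTP and 66.6 nM Ru-dUTP, after 30 min compound–enzyme preincubation at room temperature; polymerization 90 min at 37 °C, EDTA quench. Product captured on avidin plates, electrochemiluminescence read; IC50 by four-parameter logistic fit versus DMSO and 1 μM efavirenz controls.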
On to `CN(C)c1cc(Cn2cnc(C(F)(F)F)c(Oc3cc(Cl)cc(C#N)c3)c2=O)n[nH]c1=O` [Example 92, 3-chloro-5-((1-((5-(dimethylamino)-6-oxo-1,6-dihydropyridazin-3-yl)methyl)-6-oxo-4-(trifluoromethyl)-1,6-dihydropyrimidin-5-yl)oxy)benzonitrile], for which the IC50 is 6 nM. As for `N#Cc1cc(Cl)cc(Oc2c(C(F)(F)F)ncn(Cc3cc(-n4cccn4)c(=O)[nH]n3)c2=O)c1` [Example 93, 3-chloro-5-((6-oxo-1-((6-oxo-5-(1H-pyrazol-1-yl)-1,6-dihydropyridazin-3-yl)methyl)-4-(trifluoromethyl)-1,6-dihydropyrimidin-5-yl)oxy)benzonitrile], the figure is 11 nM. Regarding `N#Cc1cc(Cl)cc(Oc2c(C(F)(F)F)ncn(Cc3cc(-n4ccnn4)c(=O)[nH]n3)c2=O)c1` [Example 94, 3-chloro-5-((6-oxo-1-((6-oxo-5-(1H-1,2,3-triazol-1-yl)-1,6-dihydropyridazin-3-yl)methyl)-4-(trifluoromethyl)-1,6-dihydropyrimidin-5-yl)oxy)benzonitrile], the IC50 is 48 nM. As for `N#Cc1cc(Cl)cc(Oc2c(C(F)(F)F)ncn(Cc3cc(C#N)c(=O)[nH]n3)c2=O)c1` [Example 95, 6-((5-(3-chloro-5-cyanophenoxy)-6-oxo-4-(trifluoromethyl)pyrimidin-1(6H)-yl)methyl)-3-oxo-2,3-dihydropyridazine-4-carbonitrile], the half-inhibitory concentration (IC50) was 8 nM. As for `CS(=O)(=O)c1cc(Cn2cnc(C(F)(F)F)c(Oc3cc(Cl)cc(C#N)c3)c2=O)n[nH]c1=O` [Example 96, 3-chloro-5-((1-((5-(methylsulfonyl)-6-oxo-1,6-dihydropyridazin-3-yl)methyl)-6-oxo-4-(trifluoromethyl)-1,6-dihydropyrimidin-5-yl)oxy)benzonitrile], the figure is 336 nM; as for `CCS(=O)(=O)c1cc(Cn2cnc(C(F)(F)F)c(Oc3cc(Cl)cc(C#N)c3)c2=O)n[nH]c1=O` [Example 97, 3-chloro-5-((1-((5-(ethylsulfonyl)-6-oxo-1,6-dihydropyridazin-3-yl)methyl)-6-oxo-4-(trifluoromethyl)-1,6-dihydropyrimidin-5-yl)oxy)benzonitrile], 247 nM. On to `N#Cc1cc(Cl)cc(Oc2c(C(F)(F)F)ncn(Cc3cc(-c4ccc(F)cn4)c(=O)[nH]n3)c2=O)c1` [Example 98, 3-chloro-5-((1-((5-(5-fluoropyridin-2-yl)-6-oxo-1,6-dihydropyridazin-3-yl)methyl)-6-oxo-4-(trifluoromethyl)-1,6-dihydropyrimidin-5-yl)oxy)benzonitrile], for which the IC50 was determined as 9 nM.

With `N#Cc1cc(Cl)cc(Oc2c(C(F)(F)F)ncn(Cc3cc(-c4ccc(Cl)cn4)c(=O)[nH]n3)c2=O)c1` [Example 99, 3-chloro-5-((1-((5-(5-chloropyridin-2-yl)-6-oxo-1,6-dihydropyridazin-3-yl)methyl)-6-oxo-4-(trifluoromethyl)-1,6-dihydropyrimidin-5-yl)oxy)benzonitrile], the IC50 came to 7 nM. In the case of `COC(=O)c1cc(Cn2cnc(C(F)(F)F)c(Oc3cc(Cl)cc(C#N)c3)c2=O)n[nH]c1=O` [Example 100, methyl 6-((5-(3-chloro-5-cyanophenoxy)-6-oxo-4-(trifluoromethyl)pyrimidin-1(6H)-yl)methyl)-3-oxo-2,3-dihydropyridazine-4-carboxylate], the IC50 was 23 nM. In the case of `N#Cc1cc(Cl)cc(Oc2c(C(F)(F)F)ncn(Cc3cc(C(N)=O)c(=O)[nH]n3)c2=O)c1` [Example 101, 6-((5-(3-chloro-5-cyanophenoxy)-6-oxo-4-(trifluoromethyl)pyrimidin-1(6H)-yl)methyl)-3-oxo-2,3-dihydropyridazine-4-carboxamide], the IC50 came out at 153 nM.

Take `N#Cc1cc(Cl)cc(Oc2c(C(F)(F)F)ncn(Cc3cc(C(F)F)c(=O)[nH]n3)c2=O)c1` [Example 102, 3-chloro-5-((1-((5-(difluoromethyl)-6-oxo-1,6-dihydropyridazin-3-yl)methyl)-6-oxo-4-(trifluoromethyl)-1,6-dihydropyrimidin-5-yl)oxy)benzonitrile]: the half-maximal inhibitory concentration (IC50) stood at 20 nM.

Regarding `N#Cc1cc(Cl)cc(Oc2c(C(F)(F)F)ncn(Cc3cc(C(O)C(F)(F)F)c(=O)[nH]n3)c2=O)c1` (centres unmarked) [Example 103, 3-chloro-5-((6-oxo-1-((6-oxo-5-(2,2,2-trifluoro-1-hydroxyethyl)-1,6-dihydropyridazin-3-yl)methyl)-4-(trifluoromethyl)-1,6-dihydropyrimidin-5-yl)oxy)benzonitrile], the IC50 is 74 nM.

Regarding `CC(=O)c1cc(Cn2cnc(C(F)(F)F)c(Oc3cc(Cl)cc(C#N)c3)c2=O)n[nH]c1=O` [Example 105, 3-((1-((5-acetyl-6-oxo-1,6-dihydropyridazin-3-yl)methyl)-6-oxo-4-(trifluoromethyl)-1,6-dihydropyrimidin-5-yl)oxy)-5-chlorobenzonitrile], the IC50 is 19 nM.

In the case of `COc1cc(Cn2cnc(C(F)(F)F)c(Oc3cc(Cl)cc(C#N)c3)c2=O)n[nH]c1=O` [Example 106, 3-chloro-5-((1-((5-methoxy-6-oxo-1,6-dihydropyridazin-3-yl)methyl)-6-oxo-4-(trifluoromethyl)-1,6-dihydropyrimidin-5-yl)oxy)benzonitrile], the 50% inhibitory concentration (IC50) was 12 nM. For `N#Cc1cc(Cl)cc(Oc2c(C(F)(F)F)ncn(Cc3cc(O)c(=O)[nH]n3)c2=O)c1` [Example 107, 3-chloro-5-((1-((5-hydroxy-6-oxo-1,6-dihydropyridazin-3-yl)methyl)-6-oxo-4-(trifluoromethyl)-1,6-dihydropyrimidin-5-yl)oxy)benzonitrile], the 50% inhibitory concentration (IC50) is 223 nM. On to `N#Cc1cc(Cl)cc(Oc2c(C(F)(F)F)ncn(Cc3cc(Oc4ccc(F)cc4)c(=O)[nH]n3)c2=O)c1` [Example 108, 3-chloro-5-((1-((5-(4-fluorophenoxy)-6-oxo-1,6-dihydropyridazin-3-yl)methyl)-6-oxo-4-(trifluoromethyl)-1,6-dihydropyrimidin-5-yl)oxy)benzonitrile], for which the IC50 came out at 316 nM.

On to `N#Cc1cc(Cl)cc(Oc2c(C(F)(F)F)ncn(Cc3cc(OC(F)F)c(=O)[nH]n3)c2=O)c1` [Example 109, 3-chloro-5-((1-((5-(difluoromethoxy)-6-oxo-1,6-dihydropyridazin-3-yl)methyl)-6-oxo-4-(trifluoromethyl)-1,6-dihydropyrimidin-5-yl)oxy)benzonitrile], for which the IC50 was determined as 7 nM.

On to `Cn1cc(-c2cc(Cn3cnc(C(F)(F)F)c(Oc4cc(Cl)cc(C#N)c4)c3=O)c(=O)[nH]n2)cn1` [Example 111, 3-chloro-5-((1-((6-(1-methyl-1H-pyrazol-4-yl)-3-oxo-2,3-dihydropyridazin-4-yl)methyl)-6-oxo-4-(trifluoromethyl)-1,6-dihydropyrimidin-5-yl)oxy)benzonitrile], for which the IC50 was determined as 10 nM. As to `N#Cc1cc(Cl)cc(Oc2c(C(F)(F)F)ncn(Cc3cc(-c4ccc(F)cc4)n[nH]c3=O)c2=O)c1` [Example 112, 3-chloro-5-((1-((6-(4-fluorophenyl)-3-oxo-2,3-dihydropyridazin-4-yl)methyl)-6-oxo-4-(trifluoromethyl)-1,6-dihydropyrimidin-5-yl)oxy)benzonitrile], the concentration for half-maximal inhibition (IC50) was 5 nM.

With `N#Cc1cc(Cl)cc(Oc2c(C(F)(F)F)ncn(Cc3cc(-c4cccc(F)c4)n[nH]c3=O)c2=O)c1` [Example 113, 3-chloro-5-((1-((6-(3-fluorophenyl)-3-oxo-2,3-dihydropyridazin-4-yl)methyl)-6-oxo-4-(trifluoromethyl)-1,6-dihydropyrimidin-5-yl)oxy)benzonitrile], the IC50 came out at 6 nM. As to `Cn1nccc1-c1cc(Cn2cnc(C(F)(F)F)c(Oc3cc(Cl)cc(C#N)c3)c2=O)c(=O)[nH]n1` [Example 114, 3-chloro-5-((1-((6-(1-methyl-1H-pyrazol-5-yl)-3-oxo-2,3-dihydropyridazin-4-yl)methyl)-6-oxo-4-(trifluoromethyl)-1,6-dihydropyrimidin-5-yl)oxy)benzonitrile], the 50% inhibitory concentration (IC50) stood at 7 nM. With `N#Cc1cc(Cl)cc(Oc2c(C(F)(F)F)ncn(Cc3cc(-c4ccc(OC(F)F)cc4)n[nH]c3=O)c2=O)c1` [Example 115, 3-chloro-5-((1-((6-(4-(difluoromethoxy)phenyl)-3-oxo-2,3-dihydropyridazin-4-yl)methyl)-6-oxo-4-(trifluoromethyl)-1,6-dihydropyrimidin-5-yl)oxy)benzonitrile], the IC50 is 7 nM.

Regarding `N#Cc1cc(Cl)cc(Oc2c(C(F)(F)F)ncn(Cc3cc(-c4ccc(OC(F)(F)F)cc4)n[nH]c3=O)c2=O)c1` [Example 116, 3-chloro-5-((6-oxo-1-((3-oxo-6-(4-(trifluoromethoxy)phenyl)-2,3-dihydropyridazin-4-yl)methyl)-4-(trifluoromethyl)-1,6-dihydropyrimidin-5-yl)oxy)benzonitrile], the half-inhibitory concentration (IC50) turned out to be 21 nM.

For the molecule `N#Cc1cc(Cl)cc(Oc2c(C(F)(F)F)ncn(Cc3cc(-c4ccc(C(F)(F)F)cc4)n[nH]c3=O)c2=O)c1` [Example 119, 3-chloro-5-((6-oxo-1-((3-oxo-6-(4-(trifluoromethyl)phenyl)-2,3-dihydropyridazin-4-yl)methyl)-4-(trifluoromethyl)-1,6-dihydropyrimidin-5-yl)oxy)benzonitrile], the 50% inhibitory concentration (IC50) came to 12 nM.

Consider `N#Cc1cc(Cl)cc(Oc2c(C(F)(F)F)ncn(Cc3cc(-c4cccc(F)c4F)n[nH]c3=O)c2=O)c1` [Example 120, 3-chloro-5-((1-((6-(2,3-difluorophenyl)-3-oxo-2,3-dihydropyridazin-4-yl)methyl)-6-oxo-4-(trifluoromethyl)-1,6-dihydropyrimidin-5-yl)oxy)benzonitrile], for which the IC50 worked out at 3 nM.

As to `N#Cc1cc(Cl)cc(Oc2c(C(F)(F)F)ncn(Cc3cc(-c4ccc(F)c(F)c4)n[nH]c3=O)c2=O)c1` [Example 121, 3-chloro-5-((1-((6-(3,4-difluorophenyl)-3-oxo-2,3-dihydropyridazin-4-yl)methyl)-6-oxo-4-(trifluoromethyl)-1,6-dihydropyrimidin-5-yl)oxy)benzonitrile], the IC50 is 5 nM.
